This is an account of results in paper PMC6017735, “Novel Semisynthetic Derivatives of Bile Acids as Effective Tyrosyl-DNA Phosphodiesterase 1 Inhibitors” (Molecules : A Journal of Synthetic Chemistry and Natural …, 2018).

The structures appear in SMILES notation. Several values for one entry are separate records, joined by “and”; a condition that tells them apart may be missing. Equal values may be shown once.

T1 sequence (Q9NUW8 whole entry): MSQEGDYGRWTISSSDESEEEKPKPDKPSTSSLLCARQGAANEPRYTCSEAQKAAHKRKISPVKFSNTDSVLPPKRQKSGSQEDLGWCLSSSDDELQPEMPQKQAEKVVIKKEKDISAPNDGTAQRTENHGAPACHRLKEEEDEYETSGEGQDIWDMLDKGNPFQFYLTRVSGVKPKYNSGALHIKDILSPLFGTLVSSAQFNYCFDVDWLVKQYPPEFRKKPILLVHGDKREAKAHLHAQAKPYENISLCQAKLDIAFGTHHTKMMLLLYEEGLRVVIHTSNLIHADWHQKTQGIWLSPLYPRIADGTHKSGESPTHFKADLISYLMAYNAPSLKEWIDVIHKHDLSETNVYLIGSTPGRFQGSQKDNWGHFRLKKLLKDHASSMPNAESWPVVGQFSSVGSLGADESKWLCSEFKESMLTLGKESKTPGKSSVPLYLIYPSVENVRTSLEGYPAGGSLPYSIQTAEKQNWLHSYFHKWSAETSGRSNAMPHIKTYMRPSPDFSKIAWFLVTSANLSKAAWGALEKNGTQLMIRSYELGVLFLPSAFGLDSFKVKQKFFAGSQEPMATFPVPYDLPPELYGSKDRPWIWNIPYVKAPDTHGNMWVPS

The first assay concerns the target T1, Tdp1 (Homo sapiens, UniProt Q9NUW8).
T1 construct: inferred from the pET 16B vector and the Ni-chelating resin) (N); made in house
Kind of assay: Real-time detection of Tdp1 activity with FAM-BHQ1 oligonucleotide biosensor. Format: biochemical. To be noted: IC50 (concentration that inhibits the activity of the enzyme by 50%), samples synthesized by the authors; 50 nM biosensor, 1.3 nM Tdp1, 26 °C. The text has this:
For testing, we used recently designed oligonucleotide biosensors for the real-time detection of Tdp1 activity based on the ability of Tdp1 to remove fluorophore quenchers from the 3′-end of DNA [27]. The hexadecameric oligonucleotide carried 5(6)-carboxyfluorescein (FAM) at the 5′-end and fluorophore quencher BHQ1 (Black Hole Quencher-1) at the 3′-end. Tdp1 inhibitors prevent the removal of fluorophore quenchers, thus reducing fluorescence intensity.
The recombinant Tdp1 was purified to homogeneity by chromatography on Ni-chelating resin and phosphocellulose P11 as described using the plasmid pET 16B-Tdp1 kindly provided by Dr. K.W. Caldecott (University of Sussex, United Kingdom).
Real-Time Detection of Tdp1 Activity. The Tdp1 activity measurements were carried out as described. Briefly, Tdp1-biosensor with a final concentration of 50 nM was incubated in a volume of 200 μL containing a Tdp1 buffer (50 mM Tris-HCl pH8.0, 50 mM NaCl, 7 mM β-mercaptoethanol) supplemented with purified 1.3 nM Tdp1 and various concentrations of the inhibitor in a 1.5% DMSO solution. Fluorescence measurements (Ex485/Em520 nm) were carried out during the linear phase of reaction (from 0 to 8 min) every 55 s. The reactions were incubated at a constant temperature of 26 °C in a POLARstar OPTIMA fluorimeter, BMG LABTECH, GmbH. The influence of compounds was evaluated by comparing the fluorescence increase rate in the presence of compounds to that of the DMSO control wells.
For orientation: IC50 means the midpoint of a concentration-inhibition curve. `CC(=O)O[C@@H]1CC[C@]2(C)C3C[C@H](OC(C)=O)[C@@]4(C)C(CC[C@@H]4[C@H](C)CCC(=O)NC45CC6CC(CC(C6)C4)C5)[C@@H]3CC[C@@H]2C1` (stereo partly drawn) [Compound 8a, N-(1′-Adamantyl)-3α,12α-diacetoxy-5β-cholan-24-amide] registered an IC50 of 470 ± 80 nM. On the same count and under the same terms, next, `CCN(CC)CCCNC(=O)CC[C@@H](C)[C@H]1CCC2[C@@H]3CC[C@@H]4C[C@H](OC(C)=O)CC[C@]4(C)C3C[C@H](OC(C)=O)[C@@]21C` (stereo partly drawn) [Compound 10a, N-(3′,3′-Diethylaminopropyl)-3α,12α-diacetoxy-5β-cholan-24-amide]: above 15000 nM. As to `CC(=O)O[C@@H]1CC[C@@]2(C)[C@H](CC[C@@H]3[C@@H]2C[C@H](OC(C)=O)[C@]2(C)[C@@H]([C@H](C)CCC(=O)Nc4ccccc4)CC[C@@H]32)C1` [Compound 4a, N-Phenyl-3α,12α-diacetoxy-5β-cholan-24-amide], the IC50 is 430 ± 130 nM.

As for `CC(=O)OC1CCC2(C)C(CCC3C2CC(OC(C)=O)C2(C)C(C(C)CCC(=O)NCCc4c[nH]c5ccccc45)CCC32)C1` (centres unmarked) [Compound 3a], the IC50 was 650 ± 160 nM. The same measure, in the same setting: next, `CC(=O)O[C@@H]1CC[C@@]2(C)[C@H](CC[C@@H]3[C@@H]2C[C@H](OC(C)=O)[C@]2(C)[C@@H]([C@H](C)CCC(=O)NCCCN4CCOCC4)CC[C@@H]32)C1` [Compound 11a, N-(3′-Morpholinopropyl)-3α,12α-diacetoxy-5β-cholan-24-amide]: above 15000 nM; `C[C@H](CCC(=O)Nc1ccc(Br)cc1)[C@H]1CC[C@H]2[C@@H]3CC[C@@H]4C[C@H](O)CC[C@]4(C)[C@H]3C[C@H](O)[C@]12C` [Compound 5b, N-(4′-Bromophenyl)-3α,12α-dihydroxy-5β-cholan-24-amide]: 1300 ± 200 nM; `CC(=O)OC1CCC2(C)C(CCC3C2CC(OC(C)=O)C2(C)C(C(C)CCC(=O)NCCc4cc(C(C)(C)C)c(O)c(C(C)(C)C)c4)CCC32)C1` (stereo not drawn) [Compound 9a, N-(2′′-(3′,5′-Di-tret-buthyl-4′-hydroxyphenyl)-ethyl)-3α,12α-diacetoxy-5β-cholan-24-amide]: 290 ± 120 nM. Still for that read-out and setting: next, `CC(CCC(=O)NCCc1c[nH]c2ccccc12)C1CCC2C3CCC4CC(O)CCC4(C)C3CC(O)C12C` (centres unmarked) [Compound 3b]: 2700 ± 200 nM; `Cc1ccc(NC(=O)CC[C@@H](C)[C@H]2CC[C@H]3[C@@H]4CC[C@@H]5C[C@H](O)CC[C@]5(C)[C@H]4C[C@H](O)[C@]23C)cc1` [Compound 6b, N-(p-Tolyl)-3α,12α-dihydroxy-5β-cholan-24-amide]: 7600 ± 3900 nM; `CC(=O)O[C@@H]1CC[C@@]2(C)[C@H](CC[C@@H]3[C@@H]2C[C@H](OC(C)=O)[C@]2(C)[C@@H]([C@H](C)CCC(=O)Nc4ccc(C)cc4)CC[C@@H]32)C1` [Compound 6a, N-(p-Tolyl)-3α,12α-diacetoxy-5β-cholan-24-amide]: 1000 ± 50 nM.

In the case of `C[C@H](CCC(=O)Nc1cccnc1)[C@H]1CC[C@H]2[C@@H]3CC[C@@H]4C[C@H](O)CC[C@]4(C)[C@H]3C[C@H](O)[C@]12C` [Compound 7b, N-(Pyridin-3-yl)-3α,12α-dihydroxy-5β-cholan-24-amide], the IC50 is above 15000 nM. The same measure, in the same setting: next, `CC(=O)OC1CCC2(C)C(C1)CC(OC(C)=O)C1C2CCC2(C)C(C(C)CCC(=O)NCCc3c[nH]c4ccccc34)CCC12` (centres unmarked) [Compound 1a]: 320 ± 110 nM; `CC(=O)O[C@@H]1CC[C@@]2(C)[C@H](CC[C@@H]3[C@@H]2C[C@H](OC(C)=O)[C@]2(C)[C@@H]([C@H](C)CCC(=O)Nc4ccc(Br)cc4)CC[C@@H]32)C1` [Compound 5a, N-(4′-Bromophenyl)-3α,12α-diacetoxy-5β-cholan-24-amide]: 420 ± 10 nM; `CC(=O)OC1CC2C(CCC3CC(O)CCC32C)C2CCC(C(C)CCC(=O)NCCc3c[nH]c4ccccc34)C12C` (centres unmarked) [Compound 3c]: 950 ± 50 nM. Still for that read-out and setting: next, `CC(=O)OC1CCC2(C)C(CCC3C2CC(O)C2(C)C(C(C)CCC(=O)NCCc4c[nH]c5ccccc45)CCC32)C1` (centres unmarked) [Compound 3d]: 480 ± 40 nM. The same measure, in the same setting: as for `CC(CCC(=O)NCCc1c[nH]c2ccccc12)C1CCC2C3C(O)CC4CC(O)CCC4(C)C3CCC12C` (centres unmarked) [Compound 2b], the figure is ~2600 nM and 2600 nM; as for `C[C@H](CCC(=O)NC12CC3CC(CC(C3)C1)C2)[C@H]1CCC2[C@@H]3CC[C@@H]4C[C@H](O)CC[C@]4(C)C3C[C@H](O)[C@@]21C` (stereo partly drawn) [Compound 8b, N-(1′-Adamantyl)-3α,12α-dihidroxy-5β-cholan-24-amide], 2300 ± 400 nM; as for `CC(=O)O[C@@H]1CC[C@@]2(C)[C@H](CC[C@@H]3[C@@H]2C[C@H](OC(C)=O)[C@]2(C)[C@@H]([C@H](C)CCC(=O)Nc4cccnc4)CC[C@@H]32)C1` [Compound 7a, N-(Pyridin-3-yl)-3α,12α-diacetoxy-5β-cholan-24-amide], 4080 ± 80 nM.

`CC(=O)OC1CCC2(C)C(C1)CC(OC(C)=O)C1C2CCC2(C)C(C(C)CCC(=O)NCCc3c[nH]c4ccccc34)CCC12` (centres unmarked) [Compound 2a] came in with an IC50 of 380 ± 120 nM. On the same count and under the same terms, as for `C[C@H](CCC(=O)Nc1ccccc1)[C@H]1CC[C@H]2[C@@H]3CC[C@@H]4C[C@H](O)CC[C@]4(C)[C@H]3C[C@H](O)[C@]12C` [Compound 4b, N-Phenyl-3α,12α-dihydroxy-5β-cholan-24-amide], the figure is 6700 ± 700 nM. The same measure, in the same setting: as for `CC(CCC(=O)NCCc1c[nH]c2ccccc12)C1CCC2C3C(O)CC4CC(O)CCC4(C)C3CCC12C` (centres unmarked) [Compound 1b], the figure is 2650 ± 300 nM.

Still in this assay, the particulars now being: commercial sample of compound 1b (virtual screening hit); read-out: IC50.
As to `CC(CCC(=O)NCCc1c[nH]c2ccccc12)C1CCC2C3C(O)CC4CC(O)CCC4(C)C3CCC12C` (centres unmarked) [Compound 1b], the IC50 was 300 nM.

The next assay has as its target T1, Tdp1.
Test: not given
The following applies: single- and double-stranded substrates of DNA; cited from earlier work.
With `N=C(N)c1ccc(-c2ccc(-c3ccc(C(=N)N)cc3)o2)cc1` [Fur, furamidine], the Tdp1 inhibition result was “low micromolar concentrations”.
